We go through two molecules from patent US8013156B2 (Exelixis, Inc., priority 2003, dated 2011).

The target in this assay is Tie-2 (Homo sapiens, UniProt Q02763). As to the kind of experiment: Tie-2 tyrosine kinase activity assay (luciferase/luciferin ATP consumption with pEY substrate, or 33P-ATP incorporation). The format is biochemical. The settings on record: human enzyme Tie-2. Put shortly: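 Values are IC50 categories (A <50 nM to D ≥10,000 nM), with Ki obtainable by fitting rates to a tight-binding model. Assay formats: 33P-ATP phosphate transfer to adsorbed generic substrate counted by scintillation, or luciferase-detected ATP depletion using pEY.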
Sequence of Tie-2 (Q02763 23-1124): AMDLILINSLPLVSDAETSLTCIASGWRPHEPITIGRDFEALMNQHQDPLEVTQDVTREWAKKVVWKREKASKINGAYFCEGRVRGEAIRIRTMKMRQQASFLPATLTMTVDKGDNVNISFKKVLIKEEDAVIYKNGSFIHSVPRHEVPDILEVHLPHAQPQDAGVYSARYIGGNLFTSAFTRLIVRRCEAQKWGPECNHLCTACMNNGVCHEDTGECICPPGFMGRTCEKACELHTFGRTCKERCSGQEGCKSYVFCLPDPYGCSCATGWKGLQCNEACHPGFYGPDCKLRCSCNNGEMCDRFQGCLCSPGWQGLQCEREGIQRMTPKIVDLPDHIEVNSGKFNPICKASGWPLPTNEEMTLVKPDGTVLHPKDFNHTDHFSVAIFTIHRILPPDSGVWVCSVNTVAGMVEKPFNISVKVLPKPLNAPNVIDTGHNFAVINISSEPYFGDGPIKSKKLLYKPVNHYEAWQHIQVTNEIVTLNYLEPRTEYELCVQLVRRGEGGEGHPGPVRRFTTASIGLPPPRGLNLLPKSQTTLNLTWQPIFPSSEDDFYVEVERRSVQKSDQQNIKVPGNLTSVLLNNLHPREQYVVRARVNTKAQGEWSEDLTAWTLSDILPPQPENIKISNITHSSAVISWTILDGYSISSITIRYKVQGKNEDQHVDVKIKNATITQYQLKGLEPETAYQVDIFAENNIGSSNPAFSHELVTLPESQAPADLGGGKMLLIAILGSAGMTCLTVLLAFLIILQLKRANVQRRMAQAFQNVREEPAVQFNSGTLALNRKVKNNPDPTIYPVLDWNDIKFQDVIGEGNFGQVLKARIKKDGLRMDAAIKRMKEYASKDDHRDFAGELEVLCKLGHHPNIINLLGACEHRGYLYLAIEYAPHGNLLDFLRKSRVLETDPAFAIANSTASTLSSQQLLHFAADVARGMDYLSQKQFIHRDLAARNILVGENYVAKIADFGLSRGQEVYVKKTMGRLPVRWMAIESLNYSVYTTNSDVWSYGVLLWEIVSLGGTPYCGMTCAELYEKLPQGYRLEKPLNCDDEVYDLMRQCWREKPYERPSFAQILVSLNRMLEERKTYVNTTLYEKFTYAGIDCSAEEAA

As usually defined, the IC50 is the concentration that gives 50% inhibition.

With `Nc1nccc(COc2nsnc2N2CCN(C(=O)Cc3ccc4ccccc4c3)CC2)n1` [Example 280, 4-[({4-[4-(naphthalen-2-ylacetyl)piperazin-1-yl]-1,2,5-thiadiazol-3-yl}oxy)methyl]pyrimidin-2-amine], the IC50 was ≥ 10 µM. For `CCc1cc(Cl)cc(NC(=O)N2CCN(c3ccccc3OCc3ccnc(N)n3)CC2)c1` [Example 281, 4-(2-{[(2-aminopyrimidin-4-yl)methyl]oxy}phenyl)-N-(3-chloro-5-ethylphenyl)piperazine-1-carboxamide], the IC50 is < 0.05 µM.
